In experiment [1] the target is T1, Adenosine receptor A1 (Rattus norvegicus) (UniProt P25099).
T1 sequence (whole entry): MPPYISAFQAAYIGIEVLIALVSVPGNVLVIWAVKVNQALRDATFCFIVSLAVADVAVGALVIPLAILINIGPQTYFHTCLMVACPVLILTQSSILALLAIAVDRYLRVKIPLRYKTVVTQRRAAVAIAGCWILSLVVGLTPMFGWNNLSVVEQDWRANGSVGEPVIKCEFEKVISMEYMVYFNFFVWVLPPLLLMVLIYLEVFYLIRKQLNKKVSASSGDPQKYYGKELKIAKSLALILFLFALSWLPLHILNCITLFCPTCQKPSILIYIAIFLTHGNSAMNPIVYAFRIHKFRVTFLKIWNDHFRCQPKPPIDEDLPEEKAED
Nature of the experiment: Displacement of [3H]CCPA from adenosine A1 receptor in rat brain cortex membrane at 1 uM. Type of experiment: cell membranes.

Experiment [2] deals with Adenosine receptor A2a (Rattus norvegicus) (UniProt P30543). Nature of the experiment: Displacement of [3H]MSX2 from adenosine A2A receptor in rat brain striatum membrane at 1 uM. It is filed as cell membranes.
Chain of Adenosine receptor A2a (Rattus norvegicus) (P30543 whole entry): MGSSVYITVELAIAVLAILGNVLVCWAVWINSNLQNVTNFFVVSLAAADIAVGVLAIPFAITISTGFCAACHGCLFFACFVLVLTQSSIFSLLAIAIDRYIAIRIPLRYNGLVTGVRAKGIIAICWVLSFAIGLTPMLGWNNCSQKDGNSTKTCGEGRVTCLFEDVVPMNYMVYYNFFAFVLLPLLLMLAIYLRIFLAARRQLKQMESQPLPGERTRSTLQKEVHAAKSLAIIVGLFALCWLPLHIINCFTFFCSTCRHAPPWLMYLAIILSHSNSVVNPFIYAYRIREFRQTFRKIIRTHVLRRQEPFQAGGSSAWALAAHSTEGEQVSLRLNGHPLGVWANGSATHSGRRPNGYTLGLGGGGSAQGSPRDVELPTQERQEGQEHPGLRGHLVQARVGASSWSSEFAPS
For a further experiment, the target named is T2, Adenosine receptor A2b (Homo sapiens, UniProt P29275).
T2 sequence (P29275 whole entry): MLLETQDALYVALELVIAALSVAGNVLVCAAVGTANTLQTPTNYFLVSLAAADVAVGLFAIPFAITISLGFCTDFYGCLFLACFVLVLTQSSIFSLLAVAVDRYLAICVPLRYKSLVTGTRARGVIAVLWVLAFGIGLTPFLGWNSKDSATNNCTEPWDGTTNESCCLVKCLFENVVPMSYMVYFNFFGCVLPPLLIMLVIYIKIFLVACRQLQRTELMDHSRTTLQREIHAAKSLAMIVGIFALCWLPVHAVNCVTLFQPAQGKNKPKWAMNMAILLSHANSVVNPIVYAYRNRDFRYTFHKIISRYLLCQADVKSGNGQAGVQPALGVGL
Description: Displacement of [3H]PSB-603 from human adenosine A2B receptor expressed in CHO cells. Type of experiment: cell-based. On the technique in general: Loss of bound radioactivity is the signal in a displacement assay; it reports binding, not function.

The target in experiment [3] is T3, Adenosine receptor A2b (Homo sapiens) (UniProt P29275).
T3 sequence (whole entry): T2 sequence (P29275 whole entry)
Description: Displacement of [3H]PSB-603 from human adenosine A2B receptor expressed in CHO cells at 1 uM. Type of experiment: cell-based.

The target of experiment [4] is T4, Adenosine receptor A3 (Homo sapiens) (UniProt P0DMS8).
T4 sequence (whole entry): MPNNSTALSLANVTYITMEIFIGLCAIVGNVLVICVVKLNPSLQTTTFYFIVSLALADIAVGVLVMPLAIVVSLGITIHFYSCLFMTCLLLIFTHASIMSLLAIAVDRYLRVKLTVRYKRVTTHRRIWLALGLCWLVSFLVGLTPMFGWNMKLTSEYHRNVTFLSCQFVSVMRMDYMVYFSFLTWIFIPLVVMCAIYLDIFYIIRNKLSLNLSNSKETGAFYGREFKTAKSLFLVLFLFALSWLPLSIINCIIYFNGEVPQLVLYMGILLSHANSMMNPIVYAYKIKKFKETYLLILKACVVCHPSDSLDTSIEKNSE
Description: Displacement of [3H]PSB-11 from human adenosine A3 receptor expressed in CHO cells at 1 uM. It is filed as cell-based.

The target of experiment [5] is T5, Adenosine receptor A1 (Rattus norvegicus, UniProt P25099).
T5 sequence (P25099 whole entry): T1 sequence (whole entry)

The target of experiment [6] is T6, Adenosine receptor A2a (Rattus norvegicus, UniProt P30543).
T6 sequence (P30543 whole entry): as the sequence (P30543 whole entry) above
Experiment [7] has as its target T7, Adenosine receptor A3 (Homo sapiens, UniProt P0DMS8).
T7 sequence (P0DMS8 whole entry): T4 sequence (whole entry)
Description: biochemical.

The target in experiment [8] is T8, Adenosine receptor A1 (Homo sapiens, UniProt P30542).
T8 sequence (P30542 whole entry): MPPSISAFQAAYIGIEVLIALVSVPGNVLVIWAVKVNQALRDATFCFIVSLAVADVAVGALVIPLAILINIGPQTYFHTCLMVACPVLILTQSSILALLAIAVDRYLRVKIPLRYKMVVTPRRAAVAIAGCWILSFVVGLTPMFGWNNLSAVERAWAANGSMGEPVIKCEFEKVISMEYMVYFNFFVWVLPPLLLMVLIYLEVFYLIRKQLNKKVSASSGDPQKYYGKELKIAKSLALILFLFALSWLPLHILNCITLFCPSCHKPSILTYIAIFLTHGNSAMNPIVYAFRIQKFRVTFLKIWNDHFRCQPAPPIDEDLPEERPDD
Nature of the experiment: Binding affinity to human adenosine A1 receptor.

The target of experiment [9] is T7, Adenosine receptor A3. Nature of the experiment: Binding affinity to human adenosine A3 receptor.
Experiment [10] concerns the target T5, Adenosine receptor A1. Description: Binding affinity to rat adenosine A1 receptor.
Experiment [11] deals with T6, Adenosine receptor A2a. The source holds these as a separate data set.
Description: Binding affinity to rat adenosine A2A receptor
The target in experiment [12] is Adenosine receptor A2a (Cavia porcellus, UniProt P46616). Nature of the experiment: Binding affinity to guinea pig adenosine A2A receptor.
Chain of Adenosine receptor A2a (Cavia porcellus, UniProt P46616) (P46616 whole entry): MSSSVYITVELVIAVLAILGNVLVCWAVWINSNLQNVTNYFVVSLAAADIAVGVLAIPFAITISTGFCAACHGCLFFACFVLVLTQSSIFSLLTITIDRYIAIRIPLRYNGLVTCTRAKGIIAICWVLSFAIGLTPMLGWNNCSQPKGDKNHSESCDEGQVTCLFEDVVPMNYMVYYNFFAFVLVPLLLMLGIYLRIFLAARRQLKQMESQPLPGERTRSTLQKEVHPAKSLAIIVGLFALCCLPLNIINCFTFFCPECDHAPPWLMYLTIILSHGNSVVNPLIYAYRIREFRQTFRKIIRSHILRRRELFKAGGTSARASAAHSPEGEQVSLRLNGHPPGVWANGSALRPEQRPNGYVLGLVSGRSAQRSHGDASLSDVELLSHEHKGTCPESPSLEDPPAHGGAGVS

Bounds are passed on as bounds.

A word on the inhibition: it is how much of the control response was suppressed. The Ki is a measure of affinity in units of concentration, obtained from inhibition or displacement. Higher therefore signals lower affinity. In the case of `CNc1nc(-c2ccccc2)c(C(=O)c2ccc(Cl)cc2)s1`, the inhibition in [1], in experiment [2], in experiment [3] and in experiment [4] was less than 30% each time. Moreover, the Ki at Adenosine receptor A2b, at Adenosine receptor A1 [5], on Adenosine receptor A2a [6] and on Adenosine receptor A3 [7] was greater than 1 µM each time.
For the compound `OC[C@H]1O[C@@H](n2cnc3c(NC4CCCC4)ncnc32)[C@H](O)[C@@H]1O` [N6-CYCLOPENTYLADENOSINE], the inhibitory constant (Ki) at Adenosine receptor A2a [6] came out at 2.47 µM; on Adenosine receptor A3 [7], 3.25 µM.
In the case of `CNc1nc(-c2ccccc2)c(C(=O)c2ccccc2)s1`, the inhibition in [1], in experiment [2], in experiment [3] and in experiment [4] was less than 30% throughout. The Ki on Adenosine receptor A2b, at Adenosine receptor A1 [5], at Adenosine receptor A2a [6] and on Adenosine receptor A3 [7] was greater than 1 µM in each case.
For `COc1ccc(C(=O)c2sc(NC(=O)c3ccccc3)nc2-c2ccccc2)cc1`, the inhibition was less than 30% in [2], less than 30% in experiment [3] and 56% in [4]. The Ki at Adenosine receptor A2b is greater than 1 µM; at Adenosine receptor A1 [5], 0.00715 µM; on Adenosine receptor A2a [6] it was greater than 1 µM; on Adenosine receptor A3 [7], 1 µM.
With `O=C(c1ccccc1)c1sc(NCCc2cccs2)nc1-c1ccco1`, at Adenosine receptor A1 [8], the Ki was greater than 6.7 µM.
On to `CCOC(=O)Nc1nc(-c2ccccc2)c(C(=O)c2ccccc2)s1`, for which the inhibition constant (Ki) came out at 0.391 µM on Adenosine receptor A2b, 0.0729 µM at Adenosine receptor A1 [5], 1.64 µM on Adenosine receptor A2a [6] and 0.206 µM on Adenosine receptor A3 [7].
As to `CNc1nc(-c2ccccc2)c(C(=O)c2ccc(OC)cc2)s1`, the inhibition in [1], in experiment [2], in experiment [3] and in experiment [4] was less than 30% each time. The Ki on Adenosine receptor A2b, at Adenosine receptor A1 [5], at Adenosine receptor A2a [6] and on Adenosine receptor A3 [7] was greater than 1 µM in each case.
Turning to `CCOC(=O)Nc1nc(-c2ccccc2)c(C(=O)c2ccc(Cl)cc2)s1`, the inhibition was 41% in experiment [1], less than 30% in [2] and less than 30% in experiment [3]. In addition, the Ki at Adenosine receptor A2b was greater than 1 µM; on Adenosine receptor A1 [5] it was 1 µM; on Adenosine receptor A2a [6] it was greater than 1 µM; on Adenosine receptor A3 [7] it was 0.487 µM.
Regarding `CCCn1c(=O)c2[nH]c(C34CCC(CCC(=O)O)(CC3)CC4)nc2n(CCC)c1=O` [TONAPOFYLLINE], the inhibition constant (Ki) at Adenosine receptor A3 [9] stood at 10 µM; on Adenosine receptor A1 [10], 0.0013 µM; at Adenosine receptor A2a [11] it was 2.44 µM.
For `CS(=O)(=O)c1ccc(C(=O)c2sc(NC(=O)c3ccccc3)nc2-c2ccccc2)cc1`, the inhibition in experiment [1], in experiment [2], in [3] and in [4] was less than 30% in each case. The inhibition constant (Ki) at Adenosine receptor A2b, on Adenosine receptor A1 [5], at Adenosine receptor A2a [6] and on Adenosine receptor A3 [7] was greater than 1 µM throughout.
Take `Cc1ccc(C(=O)Nc2nc(-c3ccccc3)c(C(=O)c3ccc(Cl)cc3)s2)cc1`: the inhibition in experiment [1], in experiment [2], in experiment [3] and in experiment [4] was less than 30% each time. Also, the Ki at Adenosine receptor A2b, on Adenosine receptor A1 [5], at Adenosine receptor A2a [6] and on Adenosine receptor A3 [7] was greater than 1 µM throughout.
As to `Cc1ccc(C(=O)c2sc(Nc3ccccc3)nc2-c2ccccc2)cc1`, the inhibition in experiment [1], in [2], in experiment [3] and in experiment [4] was less than 30% in each case. The inhibition constant Ki at Adenosine receptor A2b, at Adenosine receptor A1 [5], on Adenosine receptor A2a [6] and on Adenosine receptor A3 [7] was greater than 1 µM in each case.
On to `CS(=O)(=O)c1ccc(C(=O)c2sc(Nc3ccccc3)nc2-c2ccccc2)cc1`, for which the inhibition in experiment [1], in experiment [2], in [3] and in experiment [4] was less than 30% throughout. Also, the Ki on Adenosine receptor A2b, at Adenosine receptor A1 [5], at Adenosine receptor A2a [6] and at Adenosine receptor A3 [7] was greater than 1 µM in each case.
In the case of `O=C(Nc1nc(-c2ccccc2)c(C(=O)c2ccccc2)s1)c1ccccc1`, the inhibitory constant (Ki) at Adenosine receptor A2b was greater than 1 µM; on Adenosine receptor A1 [5] it was 0.00951 µM; on Adenosine receptor A2a [6], 3.03 µM; at Adenosine receptor A3 [7], 0.354 µM. In addition, the inhibition in [3] is less than 30%.
Take `O=C(c1ccccc1)c1sc(Nc2ccccc2)nc1-c1ccccc1`: the inhibition in [1], in experiment [2] and in experiment [4] was less than 30% in each case. For the same compound, the Ki at Adenosine receptor A2b is 0.337 µM; at Adenosine receptor A1 [5], greater than 1 µM; on Adenosine receptor A2a [6], greater than 1 µM; at Adenosine receptor A3 [7] it was greater than 1 µM.
With `O=C(Nc1nc(-c2ccccc2)c(C(=O)c2ccc(Cl)cc2)s1)c1ccco1`, the inhibition in experiment [2] and in experiment [3] was less than 30% throughout. Besides, the Ki is greater than 1 µM at Adenosine receptor A2b, 0.012 µM on Adenosine receptor A1 [5], greater than 1 µM at Adenosine receptor A2a [6] and 0.619 µM on Adenosine receptor A3 [7].
For `OC1CCC(Nc2nc(-c3ccccc3)nc3[nH]ccc23)CC1` (stereo unspecified) [DERENOFYLLINE], the Ki at Adenosine receptor A3 [9] came to 0.2 µM; at Adenosine receptor A1 [10], 0.00251 µM; at Adenosine receptor A1 [8], 0.001 µM; on Adenosine receptor A2a [11] it was 0.501 µM.
Take `CCCn1c(=O)c2[nH]c(C34CC5CC(CC3C5)C4)nc2n(CCC)c1=O` [ROLOFYLLINE]: the Ki was found to be 0.23 µM on Adenosine receptor A2a [12] and 0.17 µM on Adenosine receptor A2a [11].
As to `Cc1ccc(C(=O)Nc2nc(-c3ccccc3)c(C(=O)c3ccccc3)s2)cc1`, the inhibition in experiment [1] is less than 30%; in [2], less than 30%; in experiment [3], 40%; in [4], less than 30%. Further, the inhibition constant Ki on Adenosine receptor A2b, at Adenosine receptor A1 [5], at Adenosine receptor A2a [6] and on Adenosine receptor A3 [7] was greater than 1 µM throughout.
Take `COc1ccc(C(=O)c2sc(Nc3ccccc3)nc2-c2ccccc2)cc1`: the inhibition in experiment [1] is less than 30%; in [2], less than 30%; in [3] it was 39%; in experiment [4] it was less than 30%.
`CCOC(=O)Nc1nc(-c2ccccc2)c(C(=O)c2ccc(OC)cc2)s1`: the inhibitory constant (Ki) on Adenosine receptor A2b is greater than 1 µM; on Adenosine receptor A1 [5], 0.0699 µM; on Adenosine receptor A2a [6] it was 1.84 µM; at Adenosine receptor A3 [7], 0.0988 µM. This compound also showed an inhibition in experiment [3] of less than 30%.
